Test results reported in patent publication US20240376138A1, “Crystal Forms, Preparation Method And Application Of Aryl Phosphine Oxide Compound” (Chengdu Di'Ao Jiuhong Pharmaceutical Factory, priority 2021, published 2024).

What was measured:
[1] = tested on: PC9 cells expressing EGFR-Del19; test: Cell anti-proliferation experiment 2, PC9 cells (SRB); assay type: cell-based; conditions: Homo sapiens, PC-9, 72 h, read-out: EGFR-Del 19 GI50
Procedure: (§1) • 1. […] Test information: • 2.1. Cell information: PC9 cells carried EGFR Del19 mutation, and the rest of mutant cells were constructed from PC9 cells according to the conventional stable cell strain construction method. • PC9-cell lines expressing EGFR mutation • EGFR-Del19 • EGFR-T790M/Del19 • EGFR-C797S/T790M/Del19 • 2.2. Test method:
(§2) The test compounds were diluted by 5 times each time with an appropriate concentration as an initial concentration of the test, and totally diluted into 6 concentration gradients. […] SRB (Sulforhodamine B) detection method was used, and the optical density value of each well was read by a microplate reader at 490 nm wavelength.
(§3) The optical density of the cells at the drug action of 0 was set as a Tz value representing the value of the cells at the time that the drug was added. The optical density value of the cells after the solvent control DMSO acted for 72 hours was set as a C value. The optical density of the cells on which the test compounds acted for 72 hours was set as a Ti value. The response of the cells to the drug was calculated according to a method proposed by the U.S. NIH-NCI (National Institutes of Health-National Institute of Cancer): When Ti is more than or equal to Tz, the value was [(Ti−Tz)/(C−Tz)]×100; and when Ti is less than Tz, the value was [(Ti−Tz)/Tz]×100.

[2] = tested on: PC9 cells expressing EGFR-C797S/T790M/Del19; test: as above; assay type: cell-based; conditions: Homo sapiens, PC-9, 72 h, read-out: EGFR-C797S/T790M/Del19 GI50
Procedure: as §1, §2, §3

[3] = tested on: PC9 cells expressing EGFR-T790M/Del19; test: as above; assay type: cell-based; conditions: Homo sapiens, PC-9, 72 h, read-out: EGFR-T790M/Del19 GI50
Procedure: as §1, §2, §3

[4] = target: Ba/F3 cells expressing EGFR-C797S/L858R (Homo sapiens, UniProt P00533, C797S/L858R, cells depend on it); test: Cell anti-proliferation experiment 1, BaF3 cells expressing EGFR mutation (CellTiter-Glo); assay type: cell-based; conditions: 3 days, CTG, read-out: EGFR-C797S/L858R IC50
Procedure: (§6) Test purpose: to detect the effect of the test compounds on the proliferation of cell lines containing EGFR mutations in BaF3 cells • 2. Test information: • 2.1. Cell information: Cell lines containing EGFR mutations in BaF3 were from WuXiAppTec: • BaF3-cell lines expressing EGFR mutation • EGFR-T790M/Del19 • EGFR-C797S/Del19 • EGFR-T790M/L858R • EGFR-C797S/L858R • EGFR-C797S/T790M/L858R • EGFR-C797S/T790M/Del19 • EGFR-WT wild-type cell lines • 2.2. Test method • Day 0: Cells were seeded in a plate. • a. An ultraviolet lamp of a biological safety cabinet was turned on and countdown was started for 30 minutes. • b. A medium was preheated in a 37° C. water bath. • c. After the ultraviolet irradiation was finished, the biological safety cabinet was opened. […] The cells were removed from an incubator, blown to a uniform cell suspension in the biological safety cabinet and counted. • e. […] The IC50 of each compound was calculated by computer fitting with XL-Fit analysis software (the IC50 of the compound on the cell activity inhibition could be obtained by reading the concentrations of the corresponding compounds at 500 inhibition rate). Inhibition rate % C (reading value of the control group without drug−reading value of the sample)/reading value of the control group without drug×100. • 3.

[5] = target: T1, BaF3 cells expressing EML-4-ALK-WT (Homo sapiens, UniProt Q9UM73); test: Cell anti-proliferation experiment 3, BaF3 cells with ALK fusion (CellTiter-Glo); assay type: cell-based; conditions: 3 days, CTG, read-out: EML-4-ALK-WT IC50
T1 construct: fused on or other part: Q9HC35 (Echinoderm microtubule-associated protein-like 4)
T1 sequence (Q9UM73 whole entry, change not shown, the tested form may be a part): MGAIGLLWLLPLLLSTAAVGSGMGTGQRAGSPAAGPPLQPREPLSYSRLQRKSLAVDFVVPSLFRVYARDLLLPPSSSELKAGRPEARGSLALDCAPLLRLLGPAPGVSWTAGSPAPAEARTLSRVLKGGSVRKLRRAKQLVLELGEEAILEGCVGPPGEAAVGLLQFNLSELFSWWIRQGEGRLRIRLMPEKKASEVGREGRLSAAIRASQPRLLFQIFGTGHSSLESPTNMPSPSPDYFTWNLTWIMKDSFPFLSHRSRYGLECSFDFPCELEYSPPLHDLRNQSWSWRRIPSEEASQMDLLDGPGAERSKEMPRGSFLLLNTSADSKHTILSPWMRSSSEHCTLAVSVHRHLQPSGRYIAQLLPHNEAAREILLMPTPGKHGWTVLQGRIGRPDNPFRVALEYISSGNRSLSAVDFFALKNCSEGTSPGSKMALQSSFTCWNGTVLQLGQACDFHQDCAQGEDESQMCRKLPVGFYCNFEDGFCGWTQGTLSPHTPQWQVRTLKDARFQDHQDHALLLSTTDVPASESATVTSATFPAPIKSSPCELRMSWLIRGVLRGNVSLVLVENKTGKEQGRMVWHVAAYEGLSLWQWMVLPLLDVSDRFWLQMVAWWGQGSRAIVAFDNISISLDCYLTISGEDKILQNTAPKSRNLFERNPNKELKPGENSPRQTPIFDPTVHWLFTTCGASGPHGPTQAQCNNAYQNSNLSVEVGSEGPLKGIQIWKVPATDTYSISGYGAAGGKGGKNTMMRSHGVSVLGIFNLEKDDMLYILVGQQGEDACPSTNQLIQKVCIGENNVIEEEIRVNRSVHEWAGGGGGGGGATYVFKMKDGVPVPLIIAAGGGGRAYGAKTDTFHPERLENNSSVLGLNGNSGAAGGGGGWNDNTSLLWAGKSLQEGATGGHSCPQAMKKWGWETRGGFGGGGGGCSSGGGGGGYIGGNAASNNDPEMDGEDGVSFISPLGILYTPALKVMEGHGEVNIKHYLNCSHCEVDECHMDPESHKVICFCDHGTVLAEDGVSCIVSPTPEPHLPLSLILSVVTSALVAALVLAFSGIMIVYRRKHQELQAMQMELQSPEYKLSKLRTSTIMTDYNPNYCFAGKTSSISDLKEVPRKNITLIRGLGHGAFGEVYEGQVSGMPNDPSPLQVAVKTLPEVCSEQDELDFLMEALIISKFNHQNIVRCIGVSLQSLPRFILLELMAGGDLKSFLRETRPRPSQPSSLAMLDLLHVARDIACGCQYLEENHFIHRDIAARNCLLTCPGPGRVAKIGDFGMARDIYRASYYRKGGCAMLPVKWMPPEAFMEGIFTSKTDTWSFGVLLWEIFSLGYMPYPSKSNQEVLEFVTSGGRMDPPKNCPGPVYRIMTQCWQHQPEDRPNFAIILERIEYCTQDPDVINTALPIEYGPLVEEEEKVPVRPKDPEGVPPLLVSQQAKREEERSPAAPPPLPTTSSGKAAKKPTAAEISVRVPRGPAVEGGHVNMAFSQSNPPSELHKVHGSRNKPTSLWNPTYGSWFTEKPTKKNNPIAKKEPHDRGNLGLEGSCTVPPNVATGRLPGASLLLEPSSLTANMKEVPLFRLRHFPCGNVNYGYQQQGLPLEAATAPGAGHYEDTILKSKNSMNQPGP
Description: (§4) • 1. […] Test information: • 2.1. Cell information: Cell lines containing ALK mutations in BaF3 were from WuXiAppTec: • Ba/F3-cell lines expressing ALK gene fusion and mutation • Ba/F3-EML-4-ALK-WT • Ba/F3-EML-4-ALK-L 1196M • 2.2.
(§5) Test results: The IC50 values of the compound DA and the control compound against BaF3 cells expressing EML-4-ALK-WT and EML-4-ALK-L1196M are shown in Table 22. • 4.

[6] = target: Ba/F3 cells expressing EGFR-C797S/T790M/Del19 (Homo sapiens, UniProt P00533, T790M/C797S, cells depend on it, form not given); test: Cell anti-proliferation experiment 1, BaF3 cells expressing EGFR mutation (CellTiter-Glo); assay type: cell-based; conditions: read-out: EGFR-C797S/T790M/Del19 IC50
[7] = target: Ba/F3 cells expressing EGFR-T790M/Del19 (Homo sapiens, UniProt P00533, T790M, cells depend on it, form not given); test: as above; assay type: cell-based; conditions: 3 days, CTG, read-out: EGFR-T790M/Del19 IC50
[8] = target: Ba/F3 cells expressing EGFR-WT (Homo sapiens, UniProt P00533); test: Cell anti-proliferation experiment 1, BaF3 EGFR-WT wild-type cell line (CellTiter-Glo); assay type: cell-based; conditions: read-out: EGFR-WT IC50
Procedure: (§7) Test purpose: to detect the effect of the test compounds on the proliferation of cell lines containing EGFR mutations in BaF3 cells • 2. […] Cell information: Cell lines containing EGFR mutations in BaF3 were from WuXiAppTec: • BaF3-cell lines expressing EGFR mutation • EGFR-T790M/Del19 • EGFR-C797S/Del19 • EGFR-T790M/L858R • EGFR-C797S/L858R • EGFR-C797S/T790M/L858R • EGFR-C797S/T790M/Del19 • EGFR-WT wild-type cell lines • 2.2. Test method • Day 0: Cells were seeded in a plate. • a. An ultraviolet lamp of a biological safety cabinet was turned on and countdown was started for 30 minutes. • b. A medium was preheated in a 37° C. water bath. • c. After the ultraviolet irradiation was finished, the biological safety cabinet was opened. The pre-heated medium, PBS, and the like, were wiped with alcohol and placed in the biological safety cabinet. • d. The cells were removed from an incubator, blown to a uniform cell suspension in the biological safety cabinet and counted. • e. Based on the cell counting results, the cell suspension was adjusted to a density of 3,000 cells per well and 50 microliters per well, and seeded in 384-well plates. • f. The cells after seeding were incubated in a 5% CO2 incubator at 37° C. for 3 hours. • g. Compounds were added to the cell plates using Tecan (liquid workstation). • Day 3: the cell plate added with the compounds and CTG (CellTiter-Glo chemiluminescence cell activity assay reagent) were equilibrated at room temperature, 25 μl of CTG was added to each well, centrifuged at 1,000 rpm for 1 minute, and shaken for 1-2 minutes. And centrifuging for 1 minute at 1,000 rpm again, the cell plates were allowed to settle for 10 minutes to detect a signal value in Envision. The IC50 of each compound was calculated by computer fitting with XL-Fit analysis software (the IC50 of the compound on the cell activity inhibition could be obtained by reading the concentrations of the corresponding compounds at 500 inhibition rate). Inhibition rate % C (reading value of the control group without drug−reading value of the sample)/reading value of the control group without drug×100. • 3.

[9] = target: T2, BaF3 cells expressing EML-4-ALK-L1196M (Homo sapiens, UniProt Q9UM73, L1196M, cells depend on it); test: Cell anti-proliferation experiment 3, BaF3 cells with ALK fusion and mutation (CellTiter-Glo); assay type: cell-based; conditions: 3 days, CTG, read-out: EML-4-ALK-L1196M IC50
T2 construct: fused on or other part: Q9HC35 (Echinoderm microtubule-associated protein-like 4)
T2 sequence (Q9UM73 whole entry L1196M, the tested form may be a part): as the sequence (Q9UM73 whole entry, change not shown, the tested form may be a part) above, with L1196M counted along it
Description: as §4, §5

[10] = target: Ba/F3 cells expressing EGFR-T790M/L858R (Homo sapiens, UniProt P00533, T790M/L858R, cells depend on it); test: Cell anti-proliferation experiment 1, BaF3 cells expressing EGFR mutation (CellTiter-Glo); assay type: cell-based; conditions: 3 days, CTG, read-out: EGFR-T790M/L858R IC50
Procedure: as §6

[11] = target: Ba/F3 cells expressing EGFR-C797S/Del19 (Homo sapiens, UniProt P00533, C797S, cells depend on it, form not given); test: as above; assay type: cell-based; conditions: 3 days, CTG, read-out: EGFR-C797S-Del19 IC50
Sequence of Ba/F3 cells expressing EGFR-C797S/Del19 (P00533 with tags, fused parts or gaps DEL746-750/C797S, form open): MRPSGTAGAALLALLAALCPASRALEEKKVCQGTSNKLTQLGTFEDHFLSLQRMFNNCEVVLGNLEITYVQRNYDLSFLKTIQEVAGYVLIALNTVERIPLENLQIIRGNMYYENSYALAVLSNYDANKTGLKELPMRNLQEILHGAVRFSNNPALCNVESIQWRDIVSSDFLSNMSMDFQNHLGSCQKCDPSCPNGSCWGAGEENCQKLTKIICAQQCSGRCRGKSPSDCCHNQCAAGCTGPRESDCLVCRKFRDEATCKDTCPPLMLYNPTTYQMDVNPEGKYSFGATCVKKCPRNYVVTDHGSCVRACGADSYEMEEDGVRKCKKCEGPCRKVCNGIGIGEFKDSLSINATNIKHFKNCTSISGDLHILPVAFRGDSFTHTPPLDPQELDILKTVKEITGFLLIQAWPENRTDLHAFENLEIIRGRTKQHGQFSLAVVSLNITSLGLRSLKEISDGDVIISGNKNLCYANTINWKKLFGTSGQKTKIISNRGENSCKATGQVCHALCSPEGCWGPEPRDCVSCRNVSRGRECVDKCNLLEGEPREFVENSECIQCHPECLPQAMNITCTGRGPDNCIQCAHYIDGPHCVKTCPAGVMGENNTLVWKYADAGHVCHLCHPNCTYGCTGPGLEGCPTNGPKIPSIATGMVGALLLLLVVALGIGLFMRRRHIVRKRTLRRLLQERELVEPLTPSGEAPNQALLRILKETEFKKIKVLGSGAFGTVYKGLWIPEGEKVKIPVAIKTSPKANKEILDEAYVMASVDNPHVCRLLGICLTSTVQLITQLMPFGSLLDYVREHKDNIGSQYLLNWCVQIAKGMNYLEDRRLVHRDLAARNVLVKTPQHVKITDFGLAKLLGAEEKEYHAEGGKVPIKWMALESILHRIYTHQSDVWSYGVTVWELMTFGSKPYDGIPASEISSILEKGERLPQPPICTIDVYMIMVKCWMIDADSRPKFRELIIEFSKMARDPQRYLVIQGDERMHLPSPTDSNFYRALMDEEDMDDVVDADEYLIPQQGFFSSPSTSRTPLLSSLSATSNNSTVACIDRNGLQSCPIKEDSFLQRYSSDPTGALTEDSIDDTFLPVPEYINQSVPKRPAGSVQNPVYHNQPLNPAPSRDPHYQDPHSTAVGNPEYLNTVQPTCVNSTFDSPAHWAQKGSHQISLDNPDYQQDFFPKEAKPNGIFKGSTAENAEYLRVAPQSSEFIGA

[12] = target: Ba/F3 cells expressing EGFR-C797S/T790M/L858R (Homo sapiens, UniProt P00533, T790M/C797S/L858R, cells depend on it); test: as above; assay type: cell-based; conditions: read-out: EGFR-C797S/T790M/L858R IC50
Sequence of Ba/F3 cells expressing EGFR-C797S/T790M/L858R (P00533 whole entry T790M/C797S/L858R): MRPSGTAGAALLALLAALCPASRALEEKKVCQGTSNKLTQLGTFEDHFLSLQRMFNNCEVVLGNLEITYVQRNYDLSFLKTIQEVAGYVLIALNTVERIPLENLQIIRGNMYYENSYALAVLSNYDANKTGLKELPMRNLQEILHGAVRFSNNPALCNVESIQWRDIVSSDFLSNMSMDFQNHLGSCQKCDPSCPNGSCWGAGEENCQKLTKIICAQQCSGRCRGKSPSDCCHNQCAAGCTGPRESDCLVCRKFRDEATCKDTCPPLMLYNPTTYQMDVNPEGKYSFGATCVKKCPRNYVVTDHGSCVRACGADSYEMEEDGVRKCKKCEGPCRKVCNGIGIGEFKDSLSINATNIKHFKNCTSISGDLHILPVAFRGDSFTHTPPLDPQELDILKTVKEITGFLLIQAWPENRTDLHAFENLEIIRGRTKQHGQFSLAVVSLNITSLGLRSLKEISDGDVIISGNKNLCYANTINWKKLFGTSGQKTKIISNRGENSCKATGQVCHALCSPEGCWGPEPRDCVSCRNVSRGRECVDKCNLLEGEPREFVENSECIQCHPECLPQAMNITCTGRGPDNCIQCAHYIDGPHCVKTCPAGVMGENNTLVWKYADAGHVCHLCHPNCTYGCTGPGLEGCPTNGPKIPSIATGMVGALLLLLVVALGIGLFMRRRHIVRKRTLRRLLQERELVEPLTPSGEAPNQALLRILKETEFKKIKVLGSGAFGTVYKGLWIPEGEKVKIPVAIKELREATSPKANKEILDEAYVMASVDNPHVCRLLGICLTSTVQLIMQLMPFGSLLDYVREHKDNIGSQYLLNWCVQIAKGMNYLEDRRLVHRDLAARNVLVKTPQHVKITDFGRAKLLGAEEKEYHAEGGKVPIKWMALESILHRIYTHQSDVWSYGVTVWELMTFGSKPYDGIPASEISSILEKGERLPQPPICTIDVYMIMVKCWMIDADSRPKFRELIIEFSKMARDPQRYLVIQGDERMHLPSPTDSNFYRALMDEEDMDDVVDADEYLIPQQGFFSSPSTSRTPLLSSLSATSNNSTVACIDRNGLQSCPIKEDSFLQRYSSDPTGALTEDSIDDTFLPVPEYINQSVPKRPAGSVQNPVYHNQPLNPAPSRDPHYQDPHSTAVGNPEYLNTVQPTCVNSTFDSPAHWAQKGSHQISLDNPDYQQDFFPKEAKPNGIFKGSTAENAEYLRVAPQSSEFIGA
Procedure: as §7

[13] = Comparative experiment of hygroscopicity (Chinese Pharmacopoeia 2020); assay type: physicochemical; conditions: for Hygroscopicity: class by weight gain after 24 h; for Weight gain % after 24 h: hygroscopicity test
Description: The description of hygroscopic characteristics and the definition of hygroscopic weight gain are as follows: • Deliquescence: absorbs sufficient amount of water to form a liquid; • Very hygroscopic: the weight gain by hygroscopy is not less than 15%; • Hygroscopic: the weight gain by hygroscopy is less than 15% but not less than 2%; • Slightly hygroscopic: the weight gain by hygroscopy is less than 2% but not less than 0.2%; and
Not or almost not hygroscopic: the weight gain by hygroscopy is less than 0.2% from hygroscopicity.

[14] = Solubility test; assay type: physicochemical; conditions: Solution with pH = 6.8, 25° C.±2° C.
[15] = High temperature and illumination stability test of crystal forms 1-3; assay type: physicochemical; conditions: for Traits: Day 10 (Table 18-1)
Description: The stabilities of crystal form 2 and crystal form 3 under high temperature, illumination and long-term conditions were investigated.

[16] = Stability test 3: long-term and accelerated conditions; assay type: physicochemical; conditions: Long-term (25° C. ± 2° C., 65% RH ± 10% RH)
[17] = High temperature and illumination stability test of crystal forms 1-3; assay type: physicochemical; conditions: Illumination (illuminance: 5000Lx), Day 0 (Table 18-1)
[18] = High temperature (50° C.), Day 10
[19] = High temperature (50° C.), Day 30
[20] = Illumination (illuminance: 5000Lx), Day 10
[21] = Illumination (illuminance: 5000Lx)
[22] = Illumination (illuminance: 5000Lx), Day 30

SMILES	GI50 [5] [nM]	GI50 [6] [nM]	GI50 [7] [nM]	GI50 [8] [nM]	GI50 [9] [nM]	GI50 [11] [nM]	GI50 [12] [nM]	Hygroscopicity [13]	Weight gain % after 24 h [13] [%]	Solubility for 24 h [14] [µg/mL]	purity ([15]; Day 0)	the number of impurities above the reporting limit ([15]; Day 0)	total impurities ([15]; Day 0)	purity [15, 18]	the number of impurities above the reporting limit [15, 18]	total impurities [15, 18]	purity [15, 19]	the number of impurities above the reporting limit [15, 19]	total impurities [15, 19] [%]	purity [15, 20]	also measured
COc1cc(N2CCC(N3CCN(C)CC3)CC2)ccc1Nc1ncc(Cl)c(Nc2ccccc2P(C)(C)=O)n1 [Brigatinib (Brigatinib), Brigatinib]																					GI50 [1]: 287 nM; GI50 [2]: 516 nM; GI50 [3]: 256 nM
COc1cc(N2CCC(N3CCN(C)CC3)CC2)c(C)cc1Nc1ncc(Cl)c(Nc2cccc(C)c2P(C)(C)=O)n1 [Control compound 1]	34.1	180	166	1600	65	184	626														GI50 [4]: 573 nM; GI50 [10]: 156 nM
COc1cc(N2CCC(N3CCN(C)CC3)CC2)c(C)cc1Nc1ncc(Cl)c(Nc2ccccc2P(C)(C)=O)n1 [Control compound 2]	43.6	221	172	1760	47.4	177	583														
COc1cc(N2CCC(N3CCN(C)CC3)CC2)ccc1Nc1ncc(Cl)c(Nc2ccc(C)cc2P(C)(C)=O)n1 [Control compound 3]	39.4	192	216	2340	50.2	203	566														
COc1cc(N2CCC(N3CCN(C)CC3)CC2)c(C)cc1Nc1ncc(Br)c(Nc2ccc(C)cc2P(C)(C)=O)n1 [Crystal form 2, (2-((5-bromo-2-((2-methoxy-5-methyl-4-(4-(4-methylpiperazin-1-yl)piperidin-1-yl)phenyl)amino)pyrimidin-4-yl)amino)-5-methylphenyl)dimethylphosphorus oxide]								Slightly hygroscopic (the weight gain by hygroscopy is less than 2% but not less than 0.2%)	1.35	1360	purity: 99.37%	limit is 7 total	impurities: 0.63%	99.20% the	limit is 9 total	impurities: 0.80%	purity: 98.72%;	limit is 13;	1.28	99.01% the	total impurities ([15]; Day 0, listed as crystal form 2): 0.63%; the number of impurities above the reporting limit [15, 20]: limit is 10 total; total impurities [15, 20]: impurities: 0.99%; Traits [15, 21]: light yellow; purity [15, 22]: purity: 98.0%;; the number of impurities above the reporting limit [15, 22]: limit is 14;; total impurities [15, 22]: 2.0%; total impurities ([15]; Illumination (illuminance: 5000Lx), Day 30, listed as crystal form 2): 2.0%; Traits ([16]; Day 0): Off-white; Traits ([16]; Day 30): Light yellow; Traits [17]: off-white
COc1cc(N2CCC(N3CCN(C)CC3)CC2)c(C)cc1Nc1ncc(Br)c(Nc2ccc(C)cc2P(C)(C)=O)n1 [Crystal form 3, (2-((5-bromo-2-((2-methoxy-5-methyl-4-(4-(4-methylpiperazin-1-yl)piperidin-1-yl)phenyl)amino)pyrimidin-4-yl)amino)-5-methylphenyl)dimethylphosphorus oxide]								Slightly hygroscopic (the weight gain by hygroscopy is less than 2% but not less than 0.2%)	1.49	1230	purity: 99.44%;	limit is 7;	0.56%	99.28%; the	limit is 7; total	impurities: 0.72%	98.89%; the	limit is 10;	1.11	purity: 98.83%;	total impurities ([15]; Day 0, listed as crystal form 3): 0.56%; the number of impurities above the reporting limit [15, 20]: limit is 10;; total impurities [15, 20]: 1.17%; Traits [15, 21]: light yellow; purity [15, 22]: purity: 96.95%;; the number of impurities above the reporting limit [15, 22]: limit is 17;; total impurities [15, 22]: 3.05%; total impurities ([15]; Illumination (illuminance: 5000Lx), Day 30, listed as crystal form 3): 3.05%; Traits ([16]; Day 0): Off-white; Traits ([16]; Day 30): Light yellow; Traits [17]: off-white
